Assay results from patent publication US20050143296A1, “Extraction and utilization of cell growth-promoting peptides from silk protein” (priority 2003, published 2005).
“Also recorded” adds a separate entry of the source. Where a SMILES comes first, the peptide text is derived from it. Where no end group is shown, it is not given here.

Key:
[1] = Dissolution of synthetic peptides in PBS for coating; assay type: physicochemical; conditions: about 1 mg peptide in 200 μl of PBS
Experimental: About 1 mg each of the synthetic peptides was dissolved in 200 μl of PBS. The dissolved peptide solutions were diluted with 70% ethanol to adjust to 0.025% and 0.0025% concentrations, and 1 ml each of these solutions were put in dishes and dried.
70% ethanol, put in a dish and dried.

human skin fibroblasts [2] = assay: Growth of human skin fibroblasts in dishes coated with silk fractions or peptides (low serum medium with LSGS, Alamer Blue viable cell number); assay type: cell-based; conditions: for Growth rate (%): control = 100; for cell growth promotion (in words): human skin fibroblasts in coated dishes, compared to control without peptide
Experimental: Only 1 ml of 70% ethanol was added to dishes for control.
The cells used were human skin fibroblasts (originating from adult normal skin) purchased (frozen) from Sanko Junyaku Co., Ltd.
The medium was added at 2 ml per dish, and 80,000 cells were inoculated and cultured for 3 days.
The medium at 2 ml per dish and Alamer Blue (Iwaki Glass Co.) at 0.1 ml per dish were added and cultured for 2 hours at 37 degrees C., and then the reduced amount of Alamer Blue dye calculated from the absorbances at 570 nm and 600 nm was correlated with viable cell number.
Control dishes contained only 70% ethanol at 1 ml, followed by air-drying.
About 1 mg each of the synthetic peptides was dissolved in 200 μl of PBS.
The cells used were human skin fibroblasts (originating from adult normal skin) purchased (frozen) from Sanko Junyaku Co. Ltd.
The culture medium used was the low serum culture medium for human skin fibroblast growth purchased from Kurabo Industries Ltd.
The medium was added at 2 ml per dish, and ca. 80,000 cells were inoculated and cultured for 3 days.
Then, 0.1 ml of Alamer Blue (Iwaki Glass Co.) was added and cultured for 2 hours at 37 degrees C., and the reduced amount of Alamer Blue calculated from the absorbances at 570 nm and 600 nm was correlated with viable cell number.

human skin fibroblasts [3] = assay: Adhesion of human skin fibroblasts after 5 hours in peptide-coated dishes (Medium 106S without LSGS); assay type: cell-based; conditions: Table 8; 5 hour-culture; peptide 0.025 μg/cm^2; no LSGS; no peptide = 100
Experimental: (§1) This method partly differs from the method in (3) Cell culture of Example 1.
(§2) In the present cell culture, the cells used were human skin fibroblasts (originating from adult normal skin) purchased (frozen) from Sanko Junyaku Co. Ltd.
(§3) The culture medium used was the low serum culture medium for human skin fibroblast growth purchased from Kurabo Industries Ltd. (Medium 106S 500 ml).
(§4) The medium 106S is a basal medium for skin fibroblasts.
(§5) LSGS (low serum growth supplement) was not used here.
In the measurement of adhesion, the cells floating in the medium at 5 hours after inoculation of cells into the medium were removed, and the viable cell number adhering to the bottom of a dish was measured.
(§6) Besides the cell culture method, coating of peptides on cell culture dishes, measurement of viable cell number with Alamer Blue dye, and the like were carried out as described in Example 1.
(§7) In this case, the concentration of each peptide coated on dishes was 0.025 μg/cm^2.
The adhesion rate (%) in the case where no peptide was coated was set at 100.

human skin fibroblasts [4] = assay: Proliferation of human skin fibroblasts after 3-day culture in peptide-coated dishes (Medium 106S without LSGS); assay type: cell-based; conditions: Table 9, peptide 0.025 μg/cm^2, no LSGS, no peptide = 100
Experimental: as §1, §2, §3, §4, §5
In the measurement of proliferation, the viable cell number at 3 days after inoculation of cells into the medium was measured.
as §6, §7
The growth rate (%) in the case where no peptide was coated was set at 100.
It should be noted that the viable cell number in the control in 3-day culturing increased about 150% during the culture and the control value (100%) was based on the viable cell number after 3-day culture.
Accordingly, when there was no increase or decrease in the cell number after 3-day culturing, the growth rate would become about 70%.

human skin fibroblasts [5] = assay: Growth of human skin fibroblasts in dishes coated with silk fractions or peptides (low serum medium with LSGS, Alamer Blue viable cell number); assay type: cell-based; conditions: for Growth rate (%): Table 3, gel filtration peaks of A-6, cultured for 2 days, control = 100; for growth rate relative to the growth of the control: after 2-day culture (Table 3)
[6] = Table 7, peptide concentration 0.025 μg/cm^2, 3-day culture
[7] = Table 5, synthetic peptide 0.0025%, 3-day culture
[8] = Table 5, synthetic peptide 0.025%, 3-day culture
[9] = Table 6, values of Tables 4 and 5 at higher peptide concentration (0.025%)

In the case of `C[C@H](N)C(=O)N[C@@H](C)C(=O)N[C@@H](C)C(=O)N[C@@H](C)C(=O)N[C@@H](C)C(=O)N[C@@H](C)C(=O)N[C@@H](C)C(=O)N[C@@H](C)C(=O)N[C@@H](C)C(=O)N[C@@H](C)C(=O)O` [AfH0, Ala Ala Ala Ala Ala Ala Ala Ala Ala Ala], the “solubility (in words)” value [1] is reported as “hard to dissolve”.

In the case of `N[C@@H](CCC(=O)O)C(=O)O` [Glu, glutamic acid, reference compound], the “Cell growth rate (%)” value (human skin fibroblasts [2]; [6]) is reported as 69%.

With `C[C@H](NC(=O)CN)C(=O)NCC(=O)N[C@@H](C)C(=O)NCC(=O)N[C@@H](CO)C(=O)NCC(=O)N[C@@H](C)C(=O)NCC(=O)N[C@@H](C)C(=O)NCC(=O)N[C@@H](CO)C(=O)NCC(=O)N[C@@H](C)C(=O)NCC(=O)N[C@@H](C)C(=O)NCC(=O)N[C@@H](Cc1ccc(O)cc1)C(=O)NCC(=O)N[C@@H](C)C(=O)NCC(=O)N[C@@H](Cc1ccc(O)cc1)C(=O)O` [SfHC-1] (H-GAGAGSGAGAGSGAGAGYGAGY-OH; N-terminus and C-terminus assumed) the “solubility (in words)” value [1] was “difficult to dissolve”.

With `C[C@H](NC(=O)CN)C(=O)NCC(=O)N[C@@H](C)C(=O)NCC(=O)N[C@@H](CO)C(=O)NCC(=O)N[C@@H](C)C(=O)N[C@@H](C)C(=O)N[C@@H](CO)C(=O)NCC(=O)N[C@@H](C)C(=O)NCC(=O)N[C@@H](C)C(=O)NCC(=O)N[C@@H](C)C(=O)NCC(=O)N[C@@H](C)C(=O)NCC(=O)N[C@@H](C)C(=O)NCC(=O)N[C@H](C(=O)O)[C@@H](C)O` [SfHC-2] (H-GAGAGSGAASGAGAGAGAGAGT-OH; N-terminus and C-terminus assumed) the “solubility (in words)” value [1] was “difficult to dissolve”.

With `CC(C)[C@H](NC(=O)[C@H](CO)NC(=O)[C@H](CO)NC(=O)[C@H](C)NC(=O)[C@H](C)N)C(=O)N[C@@H](CO)C(=O)N[C@@H](CO)C(=O)N[C@@H](C)C(=O)N[C@@H](CO)C(=O)N[C@@H](CO)C(=O)N[C@@H](CCCNC(=N)N)C(=O)N[C@@H](CO)C(=O)N[C@@H](Cc1ccc(O)cc1)C(=O)N[C@@H](CC(=O)O)C(=O)N[C@@H](Cc1ccc(O)cc1)C(=O)N[C@@H](CO)C(=O)N[C@@H](CCCNC(=N)N)C(=O)N[C@@H](CCCNC(=N)N)C(=O)N[C@@H](CC(N)=O)C(=O)N[C@H](C(=O)N[C@@H](CCCNC(=N)N)C(=O)N[C@@H](CCCCN)C(=O)N[C@@H](CC(N)=O)C(=O)O)C(C)C` [SfHE] (H-AASSVSSASSRSYDYSRRNVRKN-OH; N-terminus and C-terminus assumed) the “solubility (in words)” value [1] was “difficult to dissolve”.

In the case of DDGFVLDGGYDSE [AfH7], the “Growth rate (%)” value (human skin fibroblasts [2]; [7]) is reported as 155 ± 5.3%, the “Growth rate (%)” value (human skin fibroblasts [2]; [8]) is reported as 284 ± 25.1% and the “Cell growth rate (%)” value (human skin fibroblasts [2]; [9]) is reported as 284%. The “cell growth promotion (in words)” value (human skin fibroblasts [2]) was “excellent cell growth promotion”, the “Adhesion rate (%)” value (human skin fibroblasts [3]) was 153% and the “Growth rate (%)” value (human skin fibroblasts [4]) was 89%.

In the case of DEDEDE, the “Cell growth rate (%)” value (human skin fibroblasts [2]; [6]) is reported as 322% and the “Adhesion rate (%)” value (human skin fibroblasts [3]) is reported as 229%.

For DEYVDN [AfH5], the “Growth rate (%)” value (human skin fibroblasts [2]; [7]) was 192 ± 11.3%, the “Growth rate (%)” value (human skin fibroblasts [2]; [8]) was 344 ± 7.7% and the “Cell growth rate (%)” value (human skin fibroblasts [2]; [9]) was 344%. For the same compound, the “cell growth promotion (in words)” value (human skin fibroblasts [2]) was “excellent cell growth promotion”, the “Adhesion rate (%)” value (human skin fibroblasts [3]) was 234% and the “Growth rate (%)” value (human skin fibroblasts [4]) was 108%.

In the case of EEEEEE, the “Cell growth rate (%)” value (human skin fibroblasts [2]; [6]) is reported as 346%.

With EEYEEY the “Cell growth rate (%)” value (human skin fibroblasts [2]; [6]) was 212%.

With EYEYEY the “Cell growth rate (%)” value (human skin fibroblasts [2]; [6]) was 207%.

In the case of GSGAGGRGDGGYGSGSS [AfH3], the “Growth rate (%)” value (human skin fibroblasts [2]; [7]) is reported as 111 ± 9.0%, the “Growth rate (%)” value (human skin fibroblasts [2]; [8]) is reported as 194 ± 24.5% and the “Cell growth rate (%)” value (human skin fibroblasts [2]; [9]) is reported as 194%. The “Adhesion rate (%)” value (human skin fibroblasts [3]) was 174% and the “Growth rate (%)” value (human skin fibroblasts [4]) was 69%.

For GSSGFGPYVAHGGYSGYEYAWSSESDFGT [SfHA], the “Growth rate (%)” value (human skin fibroblasts [2]; Table 4, synthetic peptide 0.0025%, 3-day culture) was 321 ± 6.2%, the “Growth rate (%)” value (human skin fibroblasts [2]; Table 4, synthetic peptide 0.025%, 3-day culture) was 316 ± 5.7% and the “Cell growth rate (%)” value (human skin fibroblasts [2]; [9]) was 316%. The “Adhesion rate (%)” value (human skin fibroblasts [3]) was 205% and the “Growth rate (%)” value (human skin fibroblasts [4]) was 159%.

For Glu Glu, the “Cell growth rate (%)” value (human skin fibroblasts [2]; [6]) was 159%.

In the case of “Glu Glu Glu Glu (EEEE; printed: Glu Glu Glu Glu)”, the “Cell growth rate (%)” value (human skin fibroblasts [2]; [6]) is reported as 231%.

For Glu Glu Glu Glu Glu Glu Glu Glu Glu Glu, the “Cell growth rate (%)” value (human skin fibroblasts [2]; [6]) was 254%.

In the case of NINDFDED [A-6-6], the “cell growth promotion (in words)” value (human skin fibroblasts [2]) is reported as “showed cell growth promotion”, the “Growth rate (%)” value (human skin fibroblasts [5]) is reported as 159 ± 6.6% and the “growth rate relative to the growth of the control” value (human skin fibroblasts [5]) is reported as 1.5 fold.

For RRAGHDRAAGS [AfH4], the “Growth rate (%)” value (human skin fibroblasts [2]; [7]) was 113 ± 4.8%, the “Growth rate (%)” value (human skin fibroblasts [2]; [8]) was 133 ± 8.7% and the “Cell growth rate (%)” value (human skin fibroblasts [2]; [9]) was 133%. The “Adhesion rate (%)” value (human skin fibroblasts [3]) was 151% and the “Growth rate (%)” value (human skin fibroblasts [4]) was 96%.

For SGAGGSGGYGGYGSDS [AfH2], the “Growth rate (%)” value (human skin fibroblasts [2]; [7]) was 118 ± 14.7%, the “Growth rate (%)” value (human skin fibroblasts [2]; [8]) was 196 ± 9.4% and the “Cell growth rate (%)” value (human skin fibroblasts [2]; [9]) was 196%. The “Adhesion rate (%)” value (human skin fibroblasts [3]) was 149% and the “Growth rate (%)” value (human skin fibroblasts [4]) was 71%.

With Tyr Tyr the “Cell growth rate (%)” value (human skin fibroblasts [2]; [6]) was 113%.

In the case of “Tyr Tyr Tyr Tyr (YYYY; printed: Tyr Tyr Tyr Tyr)”, the “Cell growth rate (%)” value (human skin fibroblasts [2]; [6]) is reported as 156%.

In the case of VETIVLEEDPYGHEDIYEED [AfH6], the “Growth rate (%)” value (human skin fibroblasts [2]; [7]) is reported as 152 ± 9.0%, the “Growth rate (%)” value (human skin fibroblasts [2]; [8]) is reported as 264 ± 9.0% and the “Cell growth rate (%)” value (human skin fibroblasts [2]; [9]) is reported as 264%. For the same compound, the “cell growth promotion (in words)” value (human skin fibroblasts [2]) was “higher cell growth promotion; also recorded: excellent cell growth promotion”, the “Adhesion rate (%)” value (human skin fibroblasts [3]) was 135% and the “Growth rate (%)” value (human skin fibroblasts [4]) was 77%.

In the case of VITTDSDGNE [A-6-2], the “cell growth promotion (in words)” value (human skin fibroblasts [2]) is reported as “showed cell growth promotion”, the “Growth rate (%)” value (human skin fibroblasts [5]) is reported as 153 ± 2.7% and the “growth rate relative to the growth of the control” value (human skin fibroblasts [5]) is reported as 1.5 fold.

With YGWGDGGYGSDS [AfH1] the “Growth rate (%)” value (human skin fibroblasts [2]; [7]) was 179 ± 13.5%, the “Growth rate (%)” value (human skin fibroblasts [2]; [8]) was 396 ± 4.0% and the “Cell growth rate (%)” value (human skin fibroblasts [2]; [9]) was 396%. For the same compound, the “cell growth promotion (in words)” value (human skin fibroblasts [2]) was “excellent cell growth promotion”, the “Adhesion rate (%)” value (human skin fibroblasts [3]) was 169% and the “Growth rate (%)” value (human skin fibroblasts [4]) was 94%.

In the case of YYYYYY, the “Cell growth rate (%)” value (human skin fibroblasts [2]; [6]) is reported as 239%.
